Assay results taken from patent US10844038B2, “1,2-dithiolane compounds useful in neuroprotection, autoimmune and cancer diseases and conditions” (SABILA BIOSCIENCES LLC, priority 2016, dated 2020).

What was measured:
CSK [1] = target: T1, CSK (Homo sapiens (Human), UniProt P41240); assay: Rabbit reticulocyte lysate assay (KinaseSeeker competition binding); settings: at 1 μM
Description: (§1) 1. Rabbit Reticulocyte Lysate Assay Design:
(§2) KinaseSeeker is a homogeneous competition binding assay where the displacement of an active site dependent probe by an inhibitor is measured by a change in luminescence signal. Luminescence readout translates into a highly sensitive and robust assay with low background and minimal interference from test compounds.
(§3) 10 mM stock solutions of test compounds were serially diluted in DMSO to make assay stocks. Prior to initiating IC50 determinations, the test compounds were evaluated for false positive against split-luciferase.
(§4) Each test compound was screened in duplicate against target kinase at 7 different concentrations. For kinase assays, Cfluc-kinase was translated along with Fos-Nfluc using a cell-free system (rabbit reticulocyte lysate) at 30° C. for 90 min. 24 uL aliquot of this lysate containing either 1 uL of DMSO (for no-inhibitor control) or compound solution in DMSO was incubated for 30 minutes at room temperature followed by 1 hour in presence of a kinase specific probe. 80 uL of luciferin assay reagent was added to each solution and luminescence was immediately measured on a luminometer.
(§5) The % Inhibition and % Activity Remaining was calculated using the following equation: % Inhibition=[(ALUControl−ALUSample)/ALUControl]×100 % Activity Remaining=100−% Inhibition
(§6) The % Activity was plotted against compound concentration and the IC50 was determined for each compound using a 7-point curve (Jester, B. W.; et. al. J. Am. Chem. Soc. 2010, 132, 11727-11735. Jester, B. W., et. al. J. Med. Chem. 2012, 55, 1526-1537). Biological activity of representative compounds of the disclosure are described in Table 5.

FGR = FGR (Homo sapiens (Human), UniProt P09769); assay: as above; settings: read-out: IC50 Activity Levels Against SRC Family Kinases: FGR
Chain of FGR (P09769 whole entry): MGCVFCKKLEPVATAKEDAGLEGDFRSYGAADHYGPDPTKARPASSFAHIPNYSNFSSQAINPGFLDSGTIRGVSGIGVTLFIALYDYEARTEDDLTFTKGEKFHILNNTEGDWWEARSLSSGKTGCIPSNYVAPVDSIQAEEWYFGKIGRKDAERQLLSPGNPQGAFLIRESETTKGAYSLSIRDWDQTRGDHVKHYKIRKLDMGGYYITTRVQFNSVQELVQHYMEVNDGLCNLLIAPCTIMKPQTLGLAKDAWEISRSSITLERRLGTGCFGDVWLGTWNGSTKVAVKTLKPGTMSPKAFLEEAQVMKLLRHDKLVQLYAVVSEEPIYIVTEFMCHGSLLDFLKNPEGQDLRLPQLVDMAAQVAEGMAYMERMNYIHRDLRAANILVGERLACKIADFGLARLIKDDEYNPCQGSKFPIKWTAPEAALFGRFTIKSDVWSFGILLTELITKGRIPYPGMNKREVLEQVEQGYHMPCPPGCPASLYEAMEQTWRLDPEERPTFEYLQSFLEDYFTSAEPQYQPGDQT
Description: as §1, §2, §3, §4, §5, §6

LYN = LYN (Homo sapiens (Human), UniProt P07948); assay: as above; settings: at 1 μM
Chain of LYN (P07948 whole entry): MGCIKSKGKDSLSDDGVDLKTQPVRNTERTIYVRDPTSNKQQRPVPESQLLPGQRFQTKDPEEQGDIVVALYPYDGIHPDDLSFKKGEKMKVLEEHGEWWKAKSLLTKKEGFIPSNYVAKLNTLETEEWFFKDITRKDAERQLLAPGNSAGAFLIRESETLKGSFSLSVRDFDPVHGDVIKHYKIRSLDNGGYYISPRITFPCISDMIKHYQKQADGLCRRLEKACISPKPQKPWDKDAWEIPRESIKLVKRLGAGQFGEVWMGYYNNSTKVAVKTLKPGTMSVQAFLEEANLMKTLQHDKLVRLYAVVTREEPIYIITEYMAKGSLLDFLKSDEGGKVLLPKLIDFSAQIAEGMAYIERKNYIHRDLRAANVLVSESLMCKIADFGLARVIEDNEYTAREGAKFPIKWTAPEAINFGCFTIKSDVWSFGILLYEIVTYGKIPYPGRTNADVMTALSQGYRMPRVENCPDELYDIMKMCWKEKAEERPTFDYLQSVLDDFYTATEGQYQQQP
Description: as §1, §2, §3, §4, §5, §6

YES1 = YES1 (Homo sapiens (Human), UniProt P07947); assay: as above; settings: read-out: IC50 Activity Levels Against SRC Family Kinases: YES1
Chain of YES1 (P07947 whole entry): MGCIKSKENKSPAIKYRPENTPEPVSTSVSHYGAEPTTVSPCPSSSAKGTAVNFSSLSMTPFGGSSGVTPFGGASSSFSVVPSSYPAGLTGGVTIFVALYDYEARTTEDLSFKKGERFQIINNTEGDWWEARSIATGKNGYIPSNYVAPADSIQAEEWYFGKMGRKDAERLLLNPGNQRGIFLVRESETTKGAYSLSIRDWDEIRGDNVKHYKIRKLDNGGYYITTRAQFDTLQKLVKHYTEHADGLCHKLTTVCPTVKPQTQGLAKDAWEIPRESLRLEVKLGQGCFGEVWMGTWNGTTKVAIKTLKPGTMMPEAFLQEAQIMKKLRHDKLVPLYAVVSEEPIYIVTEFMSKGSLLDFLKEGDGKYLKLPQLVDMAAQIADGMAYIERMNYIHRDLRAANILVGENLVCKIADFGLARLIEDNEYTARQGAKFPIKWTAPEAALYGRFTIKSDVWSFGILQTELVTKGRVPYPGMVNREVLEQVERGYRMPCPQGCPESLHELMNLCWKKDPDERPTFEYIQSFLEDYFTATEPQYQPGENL
Description: as §1, §2, §3, §4, §5, §6

CSK [2] = target: T1, CSK; assay: Radioisotope filter binding assay; type: biochemical; settings: read-out: IC50 Activity Levels Against SRC Family Kinases: CSK
How it was run: (§7)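 Filter-binding radiometric kinase assay: 20 min compound–enzyme preincubation, then 2 h at room temperature with 33P-gamma-ATP, in Hepes pH 7.5 buffer containing Brij35, BSA, vanadate, DTT and 1% DMSO.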

FRK = FRK (Homo sapiens (Human), UniProt P42685); assay: Radioisotope filter binding assay; type: biochemical; settings: read-out: IC50 Activity Levels Against FRK Family Kinases: FRK
Chain of FRK (P42685 whole entry): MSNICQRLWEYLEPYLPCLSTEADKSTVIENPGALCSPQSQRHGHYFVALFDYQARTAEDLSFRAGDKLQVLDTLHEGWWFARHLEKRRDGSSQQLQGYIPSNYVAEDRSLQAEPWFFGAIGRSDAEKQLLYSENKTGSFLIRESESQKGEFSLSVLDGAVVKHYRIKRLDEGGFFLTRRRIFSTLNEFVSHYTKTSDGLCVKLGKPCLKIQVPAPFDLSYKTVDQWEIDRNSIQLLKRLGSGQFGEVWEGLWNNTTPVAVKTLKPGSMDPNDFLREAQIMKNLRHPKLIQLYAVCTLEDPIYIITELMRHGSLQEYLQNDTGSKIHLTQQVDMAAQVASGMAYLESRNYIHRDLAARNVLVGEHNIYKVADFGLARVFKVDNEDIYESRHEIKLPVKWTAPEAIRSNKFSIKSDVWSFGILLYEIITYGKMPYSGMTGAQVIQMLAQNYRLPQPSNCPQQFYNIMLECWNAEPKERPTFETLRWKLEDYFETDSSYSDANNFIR
How it was run: as §7

ITK = ITK (Homo sapiens (Human), UniProt Q08881); assay: Radioisotope filter binding assay; type: biochemical; settings: read-out: IC50 Activity Levels Against Representative TEC Family Kinases: ITK
Chain of ITK (Q08881 whole entry): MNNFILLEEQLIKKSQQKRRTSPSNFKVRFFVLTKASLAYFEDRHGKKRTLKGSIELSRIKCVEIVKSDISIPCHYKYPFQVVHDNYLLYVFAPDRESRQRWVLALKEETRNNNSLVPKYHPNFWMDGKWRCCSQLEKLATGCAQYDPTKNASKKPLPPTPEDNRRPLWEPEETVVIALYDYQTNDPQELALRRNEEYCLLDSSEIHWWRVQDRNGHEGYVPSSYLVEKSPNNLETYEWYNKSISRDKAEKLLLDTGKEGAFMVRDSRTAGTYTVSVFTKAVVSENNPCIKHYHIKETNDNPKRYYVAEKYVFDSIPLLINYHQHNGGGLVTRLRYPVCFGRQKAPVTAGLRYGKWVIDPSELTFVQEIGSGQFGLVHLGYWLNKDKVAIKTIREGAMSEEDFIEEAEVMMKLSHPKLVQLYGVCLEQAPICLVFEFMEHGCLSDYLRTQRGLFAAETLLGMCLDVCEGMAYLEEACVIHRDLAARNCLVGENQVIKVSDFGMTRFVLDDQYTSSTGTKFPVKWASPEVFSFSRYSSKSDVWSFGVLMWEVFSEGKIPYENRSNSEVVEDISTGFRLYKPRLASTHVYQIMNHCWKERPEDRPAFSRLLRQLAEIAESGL
How it was run: as §7

FYN = FYN (Homo sapiens (Human), UniProt P06241); assay: Radiometric 33PanQinase assay (FlashPlate-based Protein Kinase Assay); type: biochemical; settings: at app. ATP Km, read-out: IC50 Activity Levels Against FYN Kinase: FYN
Chain of FYN (P06241 whole entry): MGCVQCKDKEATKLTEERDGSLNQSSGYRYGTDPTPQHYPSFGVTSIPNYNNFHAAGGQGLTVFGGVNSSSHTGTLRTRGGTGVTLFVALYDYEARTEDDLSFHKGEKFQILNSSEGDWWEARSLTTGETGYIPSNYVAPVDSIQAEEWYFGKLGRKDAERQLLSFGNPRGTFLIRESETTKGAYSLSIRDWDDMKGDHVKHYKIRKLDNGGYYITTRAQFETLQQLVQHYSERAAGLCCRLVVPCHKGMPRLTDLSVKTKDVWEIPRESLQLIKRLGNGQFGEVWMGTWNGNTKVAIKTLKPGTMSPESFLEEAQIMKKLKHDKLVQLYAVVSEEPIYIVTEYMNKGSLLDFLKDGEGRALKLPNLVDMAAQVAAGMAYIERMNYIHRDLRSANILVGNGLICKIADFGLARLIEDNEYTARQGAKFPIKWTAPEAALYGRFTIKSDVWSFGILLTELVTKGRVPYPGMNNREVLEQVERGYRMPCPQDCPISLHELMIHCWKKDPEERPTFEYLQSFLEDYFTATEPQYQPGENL
Text: 5. Radiometric ^33PanQinase^R Assay:
This assay referred to as FlashPlate-based Protein Kinase Assay uses recombinant protein kinase and ATP concentration corresponding to the apparent ATP-Km of the respective kinase. Testing of inhibitors is done at app. ATP Km.

BRAF = BRAF (Homo sapiens (Human), UniProt P15056); assay: KINOMEscan competition binding assay (Kd); settings: read-out: Kd Values Against MAPK Pathway Kinases: BRAF
Chain of BRAF (P15056 whole entry): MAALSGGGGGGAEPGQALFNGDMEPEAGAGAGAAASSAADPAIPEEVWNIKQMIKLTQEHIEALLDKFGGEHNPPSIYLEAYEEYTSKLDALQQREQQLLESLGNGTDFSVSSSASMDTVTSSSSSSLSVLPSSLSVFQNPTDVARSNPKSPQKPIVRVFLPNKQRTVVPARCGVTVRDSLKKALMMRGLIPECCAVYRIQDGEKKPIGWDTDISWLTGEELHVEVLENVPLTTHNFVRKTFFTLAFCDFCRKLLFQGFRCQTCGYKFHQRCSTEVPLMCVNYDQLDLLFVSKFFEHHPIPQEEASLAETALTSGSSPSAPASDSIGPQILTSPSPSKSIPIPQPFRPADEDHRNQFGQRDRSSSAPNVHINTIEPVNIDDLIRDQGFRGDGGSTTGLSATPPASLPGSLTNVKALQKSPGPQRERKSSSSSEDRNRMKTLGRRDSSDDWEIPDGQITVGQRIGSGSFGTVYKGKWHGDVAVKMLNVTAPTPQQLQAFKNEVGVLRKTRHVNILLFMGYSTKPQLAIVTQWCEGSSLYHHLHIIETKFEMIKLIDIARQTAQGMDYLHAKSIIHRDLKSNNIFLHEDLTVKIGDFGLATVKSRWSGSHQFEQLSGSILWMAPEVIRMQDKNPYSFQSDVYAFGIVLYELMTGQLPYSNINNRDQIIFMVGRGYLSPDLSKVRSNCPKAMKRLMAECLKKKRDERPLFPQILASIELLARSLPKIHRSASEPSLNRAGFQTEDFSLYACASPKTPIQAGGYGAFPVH
Description: (§8) KINOMEscan™ is based on a competition binding assay that quantitatively measures the ability of a test compound of the invention to compete with an immobilized, active-site directed ligand. The Kinase assay is performed by combining three components: DNA-tagged kinase; immobilized ligand; and a test compound. The ability of the test compound to compete with the immobilized ligand is measured via quantitative PCR of the DNA tag.
(§9) For most assays, kinase-tagged T7 phage strains were prepared in an E. coli host derived from the BL21 strain. E. coli were grown to log-phase and infected with T7 phage and incubated with shaking at 32° C. until lysis. The lysates were centrifuged and filtered to remove cell debris. The remaining kinases were produced in HEK-293 cells and subsequently tagged with DNA for qPCR detection. Streptavidin-coated magnetic beads were treated with biotinylated small molecule ligands for 30 minutes at room temperature to generate affinity resins for kinase assays. The liganded beads were blocked with excess biotin and washed with blocking buffer (SeaBlock (Pierce), 1% BSA, 0.05% Tween 20, 1 mM DTT) to remove unbound ligand and to reduce nonspecific binding. […] All reactions were performed in polystyrene 96-well plates in a final volume of 0.135 ml. […] The kinase concentration in the eluates was measured by qPCR.

MEK6 = MEK6 (Homo sapiens (Human), UniProt P52564); assay: KINOMEscan competition binding assay (Kd); settings: read-out: Kd Values Against MEK Kinases Isoforms: MEK6
Chain of MEK6 (P52564 whole entry, canonical isoform): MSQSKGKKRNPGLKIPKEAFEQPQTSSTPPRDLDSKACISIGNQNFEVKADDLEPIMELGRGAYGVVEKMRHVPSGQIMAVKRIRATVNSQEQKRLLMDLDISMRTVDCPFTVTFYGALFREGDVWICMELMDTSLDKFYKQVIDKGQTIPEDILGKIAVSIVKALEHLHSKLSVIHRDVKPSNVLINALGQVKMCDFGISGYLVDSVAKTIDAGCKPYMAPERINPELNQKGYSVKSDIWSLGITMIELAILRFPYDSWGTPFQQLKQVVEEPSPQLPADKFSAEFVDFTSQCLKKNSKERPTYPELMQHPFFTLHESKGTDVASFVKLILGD
Description: as §8, §9

MEK7 = MEK7 (Homo sapiens (Human), UniProt O14733); assay: KINOMEscan competition binding assay (Kd); settings: read-out: Kd Values Against MEK Kinases Isoforms: MEK7
Chain of MEK7 (O14733 whole entry, canonical isoform): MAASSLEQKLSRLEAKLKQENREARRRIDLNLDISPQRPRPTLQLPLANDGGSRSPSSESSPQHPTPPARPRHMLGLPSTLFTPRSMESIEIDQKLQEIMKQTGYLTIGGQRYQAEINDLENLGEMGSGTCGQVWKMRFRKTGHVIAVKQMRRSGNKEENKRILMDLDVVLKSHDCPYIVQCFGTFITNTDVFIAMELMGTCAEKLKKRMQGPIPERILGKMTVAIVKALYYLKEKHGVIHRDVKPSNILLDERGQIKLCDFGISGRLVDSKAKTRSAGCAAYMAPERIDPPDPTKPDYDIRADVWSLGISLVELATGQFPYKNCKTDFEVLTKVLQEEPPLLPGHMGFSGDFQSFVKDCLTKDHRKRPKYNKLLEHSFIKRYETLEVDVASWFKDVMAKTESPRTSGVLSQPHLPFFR
Description: as §8, §9

AurA = AurA (Homo sapiens (Human), UniProt O14965); assay: Radioisotope filter binding assay; type: biochemical; settings: read-out: IC50 Activity Levels Against RTKs (c-Kit, RET, HER4) and AurA, CHK2 Kinases: AurA
How it was run: as §7

| % Inhibition Against SRC Family Kinases: CSK (CSK [1]) | IC50 (FGR) | % Inhibition Against SRC Family Kinases: LYN (LYN) | IC50 (YES1) | IC50 (CSK [2]) | IC50 (FRK) | IC50 (ITK) | IC50 (FYN) | Kd (BRAF) | Kd (MEK6) | Kd (MEK7) | IC50 (AurA) | Structure (SMILES) |
| --- | --- | --- | --- | --- | --- | --- | --- | --- | --- | --- | --- | --- |
| 70% | 100 to 999 nM | 57% | 100 to 999 nM | 5 to 99 nM | 5 to 99 nM | 1000 to 10000 nM | 5 to 99 nM | – | – | – | – | Nc1ncnc2c1c(-c1ccc(Oc3ccccc3)cc1)nn2C[C@H]1SSC[C@@H]1O [43 B.] |
| – | – | – | – | – | – | – | – | 1000 to 10000 nM | 1000 to 10000 nM | 1000 to 10000 nM | – | Nc1ncnc2c1c(-c1ccc(Oc3ccccc3)cc1)nn2C[C@@H]1SSC[C@@H]1O [46 A.] |
| – | 100 to 999 nM | – | 5 to 99 nM | – | – | – | 5 to 99 nM | 1000 to 10000 nM | 1000 to 10000 nM | 1000 to 10000 nM | 100 to 999 nM | Nc1ncnc2c1c(-c1ccc(Oc3ccccc3)cc1)nn2C[C@H]1SSC[C@H]1O [46 B.] |
